What all share (assay): inhibition of tumour cell growth, NCI panel, 48 h
The test system of test [1] is COLO 205 colon.
Test [2] deals with ACHN renal.
Test [3] relates to KM12 colon.
Test [4] deals with NCI-H226 lung.
In test [5] the test system is SF-539 CNS.
Test [6] relates to SNB-19 CNS.
Test [7] has as its system UO-31 renal.
Test [8] has as its system HCT-15 colon.
For test [9], the system named is HOP-62 NSCLC.
Test [10] relates to U251 CNS.

Values joined by “and” are separate entries in the source; they are usually repeats but may differ in a detail not shown here. Equal values may be shown once.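 Method: 48-hour compound exposure of cells in 96-well plates, five concentrations, linear interpolation of endpoints. GI50 = concentration required for 50% inhibition of growth. At the TGI there is no net growth.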 Bounds are passed on as bounds.

Turning to `O=c1[nH]c(-c2ccc(C(F)(F)F)cc2)nc2c1CSCC2`, the GI50 in test [1] is above 100 µM; in test [2] it was 32.9 µM; in [3], above 100 µM; in test [4], 30.4 µM; in test [5], above 100 µM; in test [6], 47.3 µM. Besides, the GI50 in [7] was 5.43 µM; in test [8], above 100 µM; in [9], 17.5 µM; in test [10], 17.9 µM. The TGI in test [1], in test [2], in [3], in test [4], in test [5] and in test [6] was above 100 µM each time. For the same molecule, the TGI in test [7] is above 67.4 µM; in test [8], above 100 µM; in test [9], 51.2 µM; in [10], above 89.6 µM.

Take `O=C(/C=C/c1ccco1)Nc1ncc(Cc2ccc(F)cc2)s1`: the GI50 was 0.0352 µM in test [1]; 0.0749 µM in test [2]; 0.0486 µM in [3]; 0.0686 µM in [5]; 0.112 µM in test [6]; 0.194 µM in test [7]. The GI50 is 0.0461 µM in [8], 0.145 µM in test [9] and 0.0615 µM in [10]. Also, the TGI in test [1] is 0.137 µM; in [2], above 100 µM; in [3], above 100 µM; in test [4] it was above 100 µM; in test [5], 0.379 µM; in test [6], above 100 µM. The TGI in test [7], in [8], in [9] and in test [10] was above 100 µM each time.

For the molecule `Cc1cc(C)c(C(=O)OC(c2ccccc2)C(c2ccccc2)N2CCOCC2)c(C)c1` (configuration not stated), the TGI in test [1], in [2], in test [3], in test [4], in [5] and in [6] was above 100 µM in each case. The TGI in test [7], in [8], in test [9] and in [10] was above 100 µM in each case.

As to `CCNCCNc1cc(-c2ccc(F)cc2)c(C#N)c2nc3ccccc3n12`, the GI50 in test [1] was 2.32 µM; in test [2], 1.87 µM; in test [3], 8.37 µM; in test [4], 12 µM; in [5], 1.7 µM; in test [6] it was 4.94 µM. Also, the GI50 was 1.82 µM in [7], 2.31 µM in [8], 18.2 µM in test [9] and 2.41 µM in [10]. Besides, the TGI came to 5.74 µM in test [1]; 3.51 µM in test [2]; 21.1 µM in test [3]; 27 µM in [4]; 3.24 µM in test [5]; 17.8 µM in test [6]. The TGI turned out to be 3.75 µM in [7], 5.86 µM in test [8], 32.8 µM in [9] and 5.05 µM in [10].

In the case of `C[C@H]1[C@@H](OCC(CO[C@H]2O[C@@H]3O[C@@]4(C)CC[C@H]5[C@H](C)CC[C@@H]([C@H]2C)[C@@]35OO4)=NOCC(=O)O)OC2O[C@@]3(C)CC[C@H]4[C@H](C)CC[C@@H]1[C@@]24OO3` (some centres not stated), the GI50 in test [1] was below 0.0195 µM; in test [2], 0.188 µM; in test [3], below 0.0166 µM; in test [4], 0.0375 µM; in test [5], 0.442 µM; in test [6], 0.613 µM. Moreover, the GI50 was 0.0968 µM in test [7], below 0.01 µM in [8], 0.229 µM in [9] and below 0.0114 µM in test [10]. Moreover, the TGI in [1] is 0.422 µM; in test [2], 14.5 µM; in test [3] it was 13 µM; in test [4], 20.1 µM; in test [5], 20.9 µM; in [6] it was 18.7 µM. The TGI in test [7] is 11.3 µM; in [8], 0.891 µM; in test [9] it was 21.7 µM; in test [10], 14 µM.

On to `CC[C@@H]1OC2(C)CC(S(=O)(=O)c3ccccc3)CC1O2` (some centres not stated), for which the TGI in test [1], in test [2], in test [3], in test [4], in [5] and in test [6] was above 100 µM each time. Also, the TGI in test [7], in test [8], in test [9] and in [10] was above 100 µM throughout.

`CC(=O)N1CC(F)(F)c2c(Sc3ncc(N4CCC5(CC4)COC[C@H]5N)nc3N)cccc21`: the GI50 in test [1] is 17.8 µM; in [2], 9.03 µM; in test [3] it was 22.1 µM; in [4], 20.9 µM; in [5], 11.2 µM; in test [6], 14.4 µM. Also, the GI50 is 2.96 µM in test [7], 24 µM in [8], 3.69 µM in test [9] and 11.1 µM in test [10]. In addition, the TGI in [1] was 36.7 µM; in test [2], 51.4 µM; in test [3] it was above 100 µM; in test [4], above 100 µM; in [5], 23.3 µM; in test [6], above 100 µM. Moreover, the TGI in [7] was determined as 25.8 µM; in test [8] it was 96.8 µM; in test [9], 75.1 µM; in [10] it was 52.5 µM.

`Cn1c(O)c(C(=O)Nc2ccc([N+](=O)[O-])cc2)c(=O)n(C)c1=S`: the TGI in test [1] was 19.9 µM; in [2] it was above 27.3 µM; in test [3], 7.05 µM; in test [4] it was 9.85 µM; in test [5], 4.2 µM; in test [6] it was 10.1 µM. For the same molecule, the TGI in test [7] turned out to be 12.8 µM; in [8] it was 7.02 µM; in test [9] it was 4.05 µM; in test [10] it was 7.67 µM.

For the molecule `C[C@@H]1CC[C@@]2(OC1)O[C@H]1C[C@H]3[C@@H]4CC=C5C[C@@H](O[C@@H]6O[C@H](CO)[C@@H](O[C@@H]7O[C@@H](CO)[C@H](O)[C@H]7O)[C@H](O)[C@H]6O[C@@H]6O[C@@H](C)[C@H](O)[C@@H](O)[C@H]6O)CC[C@]5(C)[C@H]4CC[C@]3(C)[C@H]1[C@@H]2C`, the GI50 in test [1] was 0.966 µM; in test [4], 1.33 µM; in test [5], 0.758 µM; in [6], 1.21 µM; in [7], 1.28 µM; in [8], 1.12 µM. For the same molecule, the GI50 is 1.09 µM in test [9] and 1.01 µM in test [10]. In addition, the TGI in test [1] was determined as 2.17 µM; in test [2], 2.12 µM; in test [3], 2.15 µM; in [4], 3.07 µM; in test [5] it was 2.02 µM; in test [6], 2.45 µM. Further, the TGI worked out at 2.55 µM in test [7], 2.46 µM in test [8], 2.4 µM in test [9] and 2.17 µM in test [10].

For `COc1ccc2c(c1)CC[C@@H]1C2CC[C@]2(C)C(=O)NC(=O)CC12` (some centres not stated), the TGI in [1], in test [2], in test [3], in test [4], in test [5] and in [6] was above 100 µM throughout. The TGI in test [7], in [8], in [9] and in [10] was above 100 µM throughout.

With `COc1ccc(/C=C(\C#N)c2cc3ccccc3n2C)cc1`, the GI50 in [1] is 0.366 µM; in test [2], 0.654 µM; in [3], 0.503 µM; in test [4], 1.87 µM; in test [5], 0.305 µM; in test [6] it was 0.492 µM. Besides, the GI50 was 0.924 µM in test [7], 0.372 µM in test [8], 0.497 µM in test [9] and 0.493 µM in test [10]. For the same molecule, the TGI in test [2] was above 100 µM; in test [3], above 100 µM; in [4], above 70.8 µM; in test [5] it was 1.22 µM; in test [6] it was above 100 µM; in test [7] it was above 100 µM. For the same molecule, the TGI in test [8], in test [9] and in test [10] was above 100 µM throughout.

On to `O=C(NNS(=O)(=O)c1cc(C(F)(F)F)cc(C(F)(F)F)c1)c1cnn(-c2ccc(Cl)cc2)c1C(F)(F)F`, for which the GI50 is 17.4 µM in test [1]; 21.6 µM in [2]; 18.5 µM in test [3]; 20.7 µM in test [4]; 18.4 µM in test [5]; 20.2 µM in [6]. Also, the GI50 in test [7] was 15.8 µM; in test [8] it was 16 µM; in [9] it was 18.2 µM; in test [10], 17.3 µM. In addition, the TGI came out at 34.8 µM in test [1]; 51.2 µM in [2]; 39.9 µM in test [3]; 54.3 µM in test [4]; 33.5 µM in test [5]; 49.7 µM in test [6]. The TGI was determined as 31.7 µM in [7], 37.5 µM in test [8], 34.3 µM in test [9] and 35.3 µM in test [10].

In the case of `COc1ccccc1/C=C\c1cc(OC)c(OC)c(OC)c1`, the TGI in test [1] is 16.9 µM; in test [2] it was above 100 µM; in test [3], above 100 µM; in [4] it was 96.2 µM; in test [5] it was 46.4 µM; in test [6] it was above 100 µM. Further, the TGI in test [7] is 60.4 µM; in test [8] it was above 100 µM; in test [9], above 100 µM; in test [10] it was above 100 µM.

As to `COC(=O)C1=C(C(=O)OC)C2(C(=O)OC)OC1(OC)C(C1(C(=O)OC)C(C(=O)OC)=C1C(=O)OC)=C2C(=O)OC` (configuration not stated), the TGI in [1], in [2], in test [3], in [4], in [5] and in test [6] was above 100 µM each time. The TGI in [7], in [8], in [9] and in test [10] was above 100 µM in each case.

As for `O=Nc1c(O)ccc2ccccc12`, the GI50 in test [1] is 7.81 µM; in test [2], 2.16 µM; in [3] it was 5.26 µM; in [4], 15.6 µM; in test [5], 2.59 µM; in [6] it was 14.7 µM. Moreover, the GI50 in test [7] was 1.1 µM; in test [8], 3.85 µM; in [9], 12.9 µM; in [10], 2.17 µM. In addition, the TGI worked out at 21.8 µM in test [1]; 7.52 µM in [2]; 18.4 µM in [3]; 33.4 µM in test [4]; 6.29 µM in test [5]; 28.2 µM in test [6]. The TGI in test [7] worked out at 4.79 µM; in [8], 15.9 µM; in [9], 26.1 µM; in [10], 5.52 µM.

Turning to `Oc1ccc2ccccc2c1N=Nc1ccccc1`, the TGI in test [1], in test [2], in test [3], in test [4], in [5] and in [6] was above 100 µM in each case. The TGI in [7], in [8], in test [9] and in test [10] was above 100 µM each time. In test [3], the GI50 is 4.95 µM and 32.4 µM.

Regarding `CC(=O)/C(C)=N/N/C(N)=N\S(=O)(=O)c1cc(C(=O)Nc2ccccc2)c(Cl)cc1SCc1ccccc1`, the GI50 was above 100 µM in test [1]; 7.89 µM in test [2]; 60.2 µM in [3]; 66.7 µM in test [4]; 2.79 µM in [5]; above 100 µM in test [6]. In addition, the GI50 in [7] is 29.6 µM; in test [8], above 100 µM; in [9] it was 0.0554 µM; in [10], 27.7 µM. The TGI in test [1] was above 100 µM; in test [2], above 100 µM; in test [3], above 100 µM; in test [4] it was above 100 µM; in test [5], 8.05 µM; in test [6], above 100 µM. Besides, the TGI in [7] is above 100 µM; in test [8], above 100 µM; in test [9], 0.385 µM; in test [10], above 100 µM.

Source of the values: PubChem BioAssay (NCI).
